We go through one compound from BindingDB's records for doi:10.1016/j.chembiol.2011.05.014 (The University of Chicago, 2011).

For the test, the target named is T1, HTH-type transcriptional regulator MgrA (Staphylococcus aureus, UniProt P0C1S0).
T1 sequence (P0C1S0 whole entry): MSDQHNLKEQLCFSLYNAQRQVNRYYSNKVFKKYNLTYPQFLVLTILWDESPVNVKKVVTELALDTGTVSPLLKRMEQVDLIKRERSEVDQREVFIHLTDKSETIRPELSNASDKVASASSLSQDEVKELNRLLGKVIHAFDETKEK
Put plainly: Biochemical Assay. The following applies: pH 7.4.

Experimental: A fluorescence anisotropy (FA)-based biochemical assay that monitors MgrA-DNA binding. To determine the binding affinity of MgrA to the labeled DNA, different amounts of MgrA were added into the 96-well format plate.

As usually defined, the IC50 is the point on the concentration scale where inhibition reaches its midpoint. With `Cc1ccc(C)n1[C@@H](CC(=O)O)c1ccc2c(c1)OCO2` [MgrA inhibitor, 2], the IC50 was found to be 30 µM.
